Experimental data from US10448639B2, “Fungicidal pyrazoles” (FMC CORPORATION, priority 2009, dated 2019).

These compounds were tested on Alternaria solani (assay: Test C: tomato early blight, preventive spray on tomato seedlings, visual disease rating). Details: tomato early blight, preventive spray; 100 = 100% disease control, 0 = no control.

Row | Structure (SMILES) | Test C rating (% disease control) [%]
1 | Cc1nn(C)c(Nc2ccc(F)cc2F)c1-c1c(F)cc(OS(=O)(=O)C(F)(F)F)cc1F [compound 105] | 0
2 | Cc1nn(C)c(Nc2c(F)cc(F)cc2F)c1-c1ccc(F)c(F)c1 [compound 35] | 0
3 | Cc1nn(C)c(Oc2ccc(C#N)cc2F)c1-c1c(F)cc(F)cc1F [compound 96] | 99
4 | Cc1nn(C)c(Nc2ccc(C#N)cn2)c1-c1ccc(F)cc1Cl [compound 67] | 0
5 | COc1cc(F)c(-c2c(C)nn(C)c2Nc2ccc(C)cn2)c(F)c1 [compound 66] | 99
6 | Cc1nn(C)c(Nc2c(F)cc(C#N)cc2F)c1-c1c(F)cc(F)cc1F [compound 92] | 100
7 | Cc1nn(C)c(Nc2ccc(Cl)cc2F)c1-c1c(F)cc(C#N)cc1F [compound 143] | 99

Same assay, conditions: tomato early blight; 100 = 100% disease control, 0 = no control relative to controls

Row | Structure (SMILES) | Test C rating (% disease control) [%]
8 | Cc1nn(C)c(Nc2ccc(F)cc2Cl)c1-c1c(F)cccc1C(F)(F)F [compound 253] | 0
9 | Cc1nn(C)c(Oc2c(F)cc(C#N)cc2F)c1-c1ccc(F)cc1F [compound 170] | 99

The compounds below were run on Puccinia recondita f. sp. tritici (assay: Test H: wheat leaf rust, curative spray on inoculated wheat seedlings, visual disease rating). Details: wheat leaf rust, curative spray; 100 = 100% disease control, 0 = no control.

Row | Structure (SMILES) | Test H rating (% disease control) [%]
10 | Cc1nn(C)c(Nc2ccc(F)cc2F)c1-c1c(F)cc(OS(=O)(=O)C(F)(F)F)cc1F [compound 105] | 9
11 | Cc1nn(C)c(Nc2c(F)cc(F)cc2F)c1-c1ccc(F)c(F)c1 [compound 35] | 0
12 | Cc1nn(C)c(Oc2ccc(C#N)cc2F)c1-c1c(F)cc(F)cc1F [compound 96] | 9
13 | Cc1nn(C)c(Nc2ccc(C#N)cn2)c1-c1ccc(F)cc1Cl [compound 67] | 24
14 | COc1cc(F)c(-c2c(C)nn(C)c2Nc2ccc(C)cn2)c(F)c1 [compound 66] | 6
15 | Cc1nn(C)c(Nc2c(F)cc(C#N)cc2F)c1-c1c(F)cc(F)cc1F [compound 92] | 41
16 | Cc1nn(C)c(Nc2ccc(Cl)cc2F)c1-c1c(F)cc(C#N)cc1F [compound 143] | 63

Same assay, conditions: wheat leaf rust, curative; 100 = 100% disease control, 0 = no control relative to controls

Row | Structure (SMILES) | Test H rating (% disease control) [%]
17 | Cc1nn(C)c(Nc2ccc(F)cc2Cl)c1-c1c(F)cccc1C(F)(F)F [compound 253] | 0
18 | Cc1nn(C)c(Oc2c(F)cc(C#N)cc2F)c1-c1ccc(F)cc1F [compound 170] | 0

The compounds below were run on Erysiphe graminis f sp. tritici (assay: Test J: wheat powdery mildew, preventive spray on wheat seedlings, visual disease rating). Details: wheat powdery mildew, preventive spray; 100 = 100% disease control, 0 = no control.

Row | Structure (SMILES) | Test J rating (% disease control) [%]
19 | Cc1nn(C)c(Nc2ccc(F)cc2F)c1-c1c(F)cc(OS(=O)(=O)C(F)(F)F)cc1F [compound 105] | 72
20 | Cc1nn(C)c(Nc2c(F)cc(F)cc2F)c1-c1ccc(F)c(F)c1 [compound 35] | 100
21 | Cc1nn(C)c(Oc2ccc(C#N)cc2F)c1-c1c(F)cc(F)cc1F [compound 96] | 100
22 | Cc1nn(C)c(Nc2ccc(C#N)cn2)c1-c1ccc(F)cc1Cl [compound 67] | 86
23 | COc1cc(F)c(-c2c(C)nn(C)c2Nc2ccc(C)cn2)c(F)c1 [compound 66] | 99
24 | Cc1nn(C)c(Nc2c(F)cc(C#N)cc2F)c1-c1c(F)cc(F)cc1F [compound 92] | 100
25 | Cc1nn(C)c(Nc2ccc(Cl)cc2F)c1-c1c(F)cc(C#N)cc1F [compound 143] | 100

Same assay, conditions: wheat powdery mildew; 100 = 100% disease control, 0 = no control relative to controls

Row | Structure (SMILES) | Test J rating (% disease control) [%]
26 | Cc1nn(C)c(Nc2ccc(F)cc2Cl)c1-c1c(F)cccc1C(F)(F)F [compound 253] | 76
27 | Cc1nn(C)c(Oc2c(F)cc(C#N)cc2F)c1-c1ccc(F)cc1F [compound 170] | 99

These compounds were tested on Botrytis cinerea (assay: Test B: tomato Botrytis, preventive spray on tomato seedlings, visual disease rating). Details: tomato Botrytis, preventive spray; 100 = 100% disease control, 0 = no control.

Row | Structure (SMILES) | Test B rating (% disease control) [%]
28 | Cc1nn(C)c(Nc2ccc(F)cc2F)c1-c1c(F)cc(OS(=O)(=O)C(F)(F)F)cc1F [compound 105] | 23
29 | Cc1nn(C)c(Nc2c(F)cc(F)cc2F)c1-c1ccc(F)c(F)c1 [compound 35] | 100
30 | Cc1nn(C)c(Oc2ccc(C#N)cc2F)c1-c1c(F)cc(F)cc1F [compound 96] | 99
31 | Cc1nn(C)c(Nc2ccc(C#N)cn2)c1-c1ccc(F)cc1Cl [compound 67] | 95
32 | COc1cc(F)c(-c2c(C)nn(C)c2Nc2ccc(C)cn2)c(F)c1 [compound 66] | 100
33 | Cc1nn(C)c(Nc2c(F)cc(C#N)cc2F)c1-c1c(F)cc(F)cc1F [compound 92] | 100
34 | Cc1nn(C)c(Nc2ccc(Cl)cc2F)c1-c1c(F)cc(C#N)cc1F [compound 143] | 99

Same assay, conditions: tomato Botrytis; 100 = 100% disease control, 0 = no control relative to controls

Row | Structure (SMILES) | Test B rating (% disease control) [%]
35 | Cc1nn(C)c(Nc2ccc(F)cc2Cl)c1-c1c(F)cccc1C(F)(F)F [compound 253] | 99
36 | Cc1nn(C)c(Oc2c(F)cc(C#N)cc2F)c1-c1ccc(F)cc1F [compound 170] | 100

These compounds were tested on Septoria tritici (assay: Test G: wheat leaf blotch, preventive spray on wheat seedlings, visual disease rating). Details: wheat leaf blotch, preventive spray; 100 = 100% disease control, 0 = no control.

Row | Structure (SMILES) | Test G rating (% disease control) [%]
37 | Cc1nn(C)c(Nc2ccc(F)cc2F)c1-c1c(F)cc(OS(=O)(=O)C(F)(F)F)cc1F [compound 105] | 73
38 | Cc1nn(C)c(Nc2c(F)cc(F)cc2F)c1-c1ccc(F)c(F)c1 [compound 35] | 95
39 | Cc1nn(C)c(Oc2ccc(C#N)cc2F)c1-c1c(F)cc(F)cc1F [compound 96] | 100
40 | Cc1nn(C)c(Nc2ccc(C#N)cn2)c1-c1ccc(F)cc1Cl [compound 67] | 99
41 | COc1cc(F)c(-c2c(C)nn(C)c2Nc2ccc(C)cn2)c(F)c1 [compound 66] | 100
42 | Cc1nn(C)c(Nc2c(F)cc(C#N)cc2F)c1-c1c(F)cc(F)cc1F [compound 92] | 100
43 | Cc1nn(C)c(Nc2ccc(Cl)cc2F)c1-c1c(F)cc(C#N)cc1F [compound 143] | 100

Same assay, conditions: wheat leaf blotch; 100 = 100% disease control, 0 = no control relative to controls

Row | Structure (SMILES) | Test G rating (% disease control) [%]
44 | Cc1nn(C)c(Nc2ccc(F)cc2Cl)c1-c1c(F)cccc1C(F)(F)F [compound 253] | 0
45 | Cc1nn(C)c(Oc2c(F)cc(C#N)cc2F)c1-c1ccc(F)cc1F [compound 170] | 98

The compounds below were run on Puccinia recondita f. sp. tritici (assay: Test I: wheat leaf rust, preventive spray on wheat seedlings, visual disease rating). Details: wheat leaf rust, preventive spray; 100 = 100% disease control, 0 = no control.

Row | Structure (SMILES) | Test I rating (% disease control) [%]
46 | Cc1nn(C)c(Nc2ccc(F)cc2F)c1-c1c(F)cc(OS(=O)(=O)C(F)(F)F)cc1F [compound 105] | 0
47 | Cc1nn(C)c(Nc2c(F)cc(F)cc2F)c1-c1ccc(F)c(F)c1 [compound 35] | 97
48 | Cc1nn(C)c(Oc2ccc(C#N)cc2F)c1-c1c(F)cc(F)cc1F [compound 96] | 99
49 | Cc1nn(C)c(Nc2ccc(C#N)cn2)c1-c1ccc(F)cc1Cl [compound 67] | 95
50 | COc1cc(F)c(-c2c(C)nn(C)c2Nc2ccc(C)cn2)c(F)c1 [compound 66] | 100
51 | Cc1nn(C)c(Nc2c(F)cc(C#N)cc2F)c1-c1c(F)cc(F)cc1F [compound 92] | 99
52 | Cc1nn(C)c(Nc2ccc(Cl)cc2F)c1-c1c(F)cc(C#N)cc1F [compound 143] | 100

Same assay, conditions: wheat leaf rust, preventive; 100 = 100% disease control, 0 = no control relative to controls

Row | Structure (SMILES) | Test I rating (% disease control) [%]
53 | Cc1nn(C)c(Nc2ccc(F)cc2Cl)c1-c1c(F)cccc1C(F)(F)F [compound 253] | 0
54 | Cc1nn(C)c(Oc2c(F)cc(C#N)cc2F)c1-c1ccc(F)cc1F [compound 170] | 100

Each compound was assayed on Septoria nodorum (assay: Test F: Septoria glume blotch, preventive spray on wheat seedlings, visual disease rating). Details: Septoria glume blotch on wheat, preventive spray; 100 = 100% disease control, 0 = no control.

Row | Structure (SMILES) | Test F rating (% disease control) [%]
55 | Cc1nn(C)c(Nc2ccc(F)cc2F)c1-c1c(F)cc(OS(=O)(=O)C(F)(F)F)cc1F [compound 105] | 0
56 | Cc1nn(C)c(Nc2c(F)cc(F)cc2F)c1-c1ccc(F)c(F)c1 [compound 35] | 0
57 | Cc1nn(C)c(Oc2ccc(C#N)cc2F)c1-c1c(F)cc(F)cc1F [compound 96] | 99
58 | Cc1nn(C)c(Nc2ccc(C#N)cn2)c1-c1ccc(F)cc1Cl [compound 67] | 0
59 | COc1cc(F)c(-c2c(C)nn(C)c2Nc2ccc(C)cn2)c(F)c1 [compound 66] | 0
60 | Cc1nn(C)c(Nc2c(F)cc(C#N)cc2F)c1-c1c(F)cc(F)cc1F [compound 92] | 99
61 | Cc1nn(C)c(Nc2ccc(Cl)cc2F)c1-c1c(F)cc(C#N)cc1F [compound 143] | 100

Same assay, conditions: Septoria glume blotch; 100 = 100% disease control, 0 = no control relative to controls

Row | Structure (SMILES) | Test F rating (% disease control) [%]
62 | Cc1nn(C)c(Nc2ccc(F)cc2Cl)c1-c1c(F)cccc1C(F)(F)F [compound 253] | 0
63 | Cc1nn(C)c(Oc2c(F)cc(C#N)cc2F)c1-c1ccc(F)cc1F [compound 170] | 99
